From patent US8202687B2, “Method for transporting potassium ions from front side to back side of lipid bilayer membrane” (Panasonic Corporation, priority 2010, dated 2012)

Legend:
β1 adrenergic receptor = molecular target: T1, β1 adrenergic receptor (Rattus norvegicus, UniProt P18090); assay: Patch-clamp agonist concentration dependence in Gi/olf94 chimeric G protein expressing cells (present invention); format: cell-based; details: for Change Level in Current Density (relative value): Table 14, 100 = 30000 nM dopamine, 100 nM dobutamine, 30 nM ISO
T1 construct: expressed in transfected cells; host or cells: HEK293T
Procedure: Membrane current of the chimeric G protein expressing cell was measured by using a patch-clamp technique. […] Procedure for the measurements is shown below.
Measurement operations were conducted under a microscope (“1X71” manufactured by Olympus, Inc.). A liquid circulation chamber was mounted on the silver/silver chloride (Ag/AgCl) electrode. A sample for measurement was placed in the liquid circulation chamber filled with Tyroad's buffer. At a state where a single cell was in contact with the tip of a glass electrode, negative pressure was applied in the glass electrode. The portion of a cell membrane in contact with the tip of the glass electrode was torn to form an equivalent circuit (Whole-cell mode). The electric potential difference between inside and outside a cell was kept at 0 mV by using a patch clamp amplifier (“EPC10” manufactured by HEKA Instrument Inc.). Under this mode, the Tyroad's buffer in the liquid circulation chamber was substituted with a GIRK buffer.
The GIRK buffer in the liquid circulation chamber was substituted with a sample solution.
Chemical substance detection sensitivity according to the present invention was compared to detection sensitivity of cAMP technique, which is a commonly used chemical substance detection technique. The cAMP technique is a technique for measuring an increase in cAMP concentration in an intracellular fluid caused by an interaction between an agonist and a receptor, and quantifying the concentration of the agonist based on the measured value. More particularly, cells expressing β1 adrenergic receptor and potassium ion channel Kir3.1 (F137S) were placed in contact with a buffer solution containing ISO, and then were homogenized. The concentration of cAMP contained in the obtained homogenate liquid was measured. The concentration measurement was performed by using a measurement kit (cyclic AMP EIA kit; Assay Designs, Inc.). The kit measures cAMP concentration by utilizing competitive EIA (competitive enzyme immunoassay). A cAMP concentration obtained when the ISO concentration inside of a buffer solution was 1000 nM was represented as 100 as a standard, and cAMP concentrations at respective ISO concentrations were calculated as ratios with regard to this standard cAMP concentration. […] A change value in current density obtained when the ISO concentration was 30 nM was represented as 100 as a standard, and change values in current density at respective ISO concentrations were calculated as ratios with regard to the standard change value.

[1] = system: β1 adrenergic receptor / potassium ion channel Kir3.1 (F137S) in HEK293T cells; assay: Patch-clamp membrane current of G protein expressing HEK293T cells with and without ISO; format: cell-based, rat (receptor), mouse (Kir3.1)
Procedure: A cell was obtained that expressed a chimeric G protein, a potassium ion channel, and a chemical substance receptor (hereinafter, the cell is referred to as “chimeric G protein expressing cell”). An electrophysiological activity of the chimeric G protein expressing cell was measured by using patch-clamp method. The chimeric G protein expressing cell was prepared in accordance with the following procedure. First, a chimeric G protein expression plasmid, a potassium ion channel expression plasmid, and a chemical substance receptor expression plasmid were prepared. Next, the three expression plasmids were transfected into HEK293T cells, and were then expressed inside the cells.
A chimeric G protein comprising Gi/olf13 as a chimeric Gα subunit was employed. The mutated potassium ion channel Kir3.1 (F137S) was employed as a potassium ion channel. The β1 adrenergic receptor was employed as a chemical substance receptor.
The plasmid (βAR), the plasmid Kir3.1 (F137S), and the plasmid (Gi/olf13) were expressed in HEK293T cells. The procedure for the expression is shown below. Approximately 80% confluent cultured HEK293T cells were collected, and plated on a new culture petri dish. The passage number of the used cells was not more than ten generations. DMEM (supplemented with 10% FBS (fetal bovine serum) and streptomycin) was used. After culturing the cells for 24 hours, the cells were transfected with the plasmids by using a transfection reagent. The cells were cultured for 48 hours after being transfected with the plasmids, and thereby chimeric G protein expressing cells were prepared.
Membrane current of the chimeric G protein expressing cell was measured by using a patch-clamp technique. Measurements were conducted with and without supplying isoproterenol (hereinafter, referred to as “ISO”) which was a β1 adrenergic receptor agonist. Procedure for the measurements is shown below.
The chimeric G protein expressing cells were plated on coverslips (3 mm×10 mm; Matsunami Glass Ind., Ltd.,) treated with PLL (poly-L-lysine) and kept still for four hours to obtain samples for the measurements.
Procedure for preparing glass electrodes used for the measurements is described below. […]
Measurement operations were conducted under a microscope (“1X71” manufactured by Olympus, Inc.). […] Pulse potentials (electric potential: −50 mV; duration time: 100 mS) were applied every 10 seconds, and membrane currents obtained upon the application were measured.
Next, membrane currents obtained when isoproterenol (hereinafter, abbreviated as “ISO”) which is a β1 adrenergic receptor agonist was brought into contact with the cell were measured in accordance with the following procedure. […]

T1 sequence (P18090 whole entry): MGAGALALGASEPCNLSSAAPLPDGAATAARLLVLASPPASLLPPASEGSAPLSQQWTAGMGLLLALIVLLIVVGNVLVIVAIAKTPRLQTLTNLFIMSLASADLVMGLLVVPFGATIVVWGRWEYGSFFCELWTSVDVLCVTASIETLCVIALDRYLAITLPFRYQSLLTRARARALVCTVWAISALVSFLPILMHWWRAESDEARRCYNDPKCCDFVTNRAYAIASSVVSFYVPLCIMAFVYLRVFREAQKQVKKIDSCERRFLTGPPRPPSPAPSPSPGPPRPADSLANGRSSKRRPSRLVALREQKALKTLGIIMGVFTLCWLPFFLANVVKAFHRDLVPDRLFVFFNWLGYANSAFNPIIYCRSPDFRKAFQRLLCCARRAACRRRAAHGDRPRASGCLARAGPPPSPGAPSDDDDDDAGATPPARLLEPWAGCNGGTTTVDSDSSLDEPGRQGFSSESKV

## CC(CCc1ccc(O)cc1)NCCc1ccc(O)c(O)c1 (stereo not shown) [dobutamine]
β1 adrenergic receptor; agonist 0.3 nM
  Change Level in Current Density (relative value): 0.67
β1 adrenergic receptor; agonist 3 nM
  Change Level in Current Density (relative value): 6.80
β1 adrenergic receptor; agonist 30 nM
  Change Level in Current Density (relative value): 20.59
β1 adrenergic receptor; agonist 300 nM
  Change Level in Current Density (relative value): 99.15
β1 adrenergic receptor; agonist 3000 nM
  Change Level in Current Density (relative value): 100
β1 adrenergic receptor; change in current density, Gi/olf94 cells, read-out: half maximal effective concentration (EC50)
  EC50: 0.05 µM

B1: Gαolf: wild type G protein α subunit Gαolf (mouse), SEQ ID NO: 2 (protein, listed as Mus musculus)
chain: MGCLGNSSKTAEDQGVDEKERREANKKIEKQLQKERLAYKATHRLLLLGAGESGKSTIVKQMRILHVNGFNPEEKKQKILDIRKNVKDAIVTIVSAMSTIIPPVPLANPENQFRSDYIKSIAPITDFEYSQEFFDHVKKLWDDEGVKACFERSNEYQLIDCAQYFLERIDSVSLVDYTPTDQDLLRCRVLTSGIFETRFQVDKVNFHMFDVGGQRDERRKWIQCFNDVTAIIYVAACSSYNMVIREDNNTNRLRESLDLFESIWNNRWLRTISIILFLNKQDMLAEKVLAGKSKIEDYFPEYANYTVPEDATPDAGEDPKVTRAKFFIRDLFLRISTATGDGKHYCYPHFTCAVDTENIRRVFNDCRDIIQRMHLKQYELL
modifications: (1)..(381) bulbus olfactorius of mouse
[1]; Reference Example
  change level of current caused by addition of ISO: small
[1]; Reference Example, FIG. 26-28, with ISO
  current value when ISO was supplied: approximately 0.5 nA
[1]; Table 11, difference of current density without vs with ISO 30 nM, pulse −50 mV, β1 adrenergic receptor + Kir3.1 (F137S) co-expressed
  Change Level in Current Density: −22.59 pA/pF
[1]; Table 15, Reference Example, change on contact with ISO
  Current Change Level: −0.37 nA
